Data as given in the NIST ThermoML archive (doi:10.1016/j.fluid.2010.01.002).

Experiment: mn = molality of the nth substance listed, in mol/kg
Conditions: 101 kPa, Liquid, Vibrating tube method

COS(=O)(=O)[O-].Cn1cc[n+](C)c1 [1,3-dimethylimidazolium methylsulfate] + O
mass density [kg/m3]
Conditions | 298.15 K | 308.15 K | 318.15 K | 328.15 K
m1 = 0.0095 | 997.56 | 994.57 | 990.75 | 986.12
m1 = 0.018 | 998.03 | 995.02 | 991.2 | 986.56
m1 = 0.0236 | 998.32 | 995.31 | 991.48 | 986.84
m1 = 0.0316 | 998.76 | 995.73 | 991.89 | 987.25
m1 = 0.0414 | 999.29 | 996.24 | 992.39 | 987.74
m1 = 0.0611 | 1000.34 | 997.25 | 993.38 | 988.72
m1 = 0.0788 | 1001.28 | 998.16 | 994.27 | 989.59
m1 = 0.0914 | 1001.94 | 998.8 | 994.9 | 990.2
m1 = 0.1165 | 1003.24 | 1000.06 | 996.14 | 991.43
m1 = 0.1441 | 1004.65 | 1001.43 | 997.49 | 992.77
m1 = 0.1816 | 1006.53 | 1003.27 | 999.3 | 994.58
m1 = 0.2172 | 1008.25 | 1004.99 | 1001 | 996.25
m1 = 0.2724 | 1010.92 | 1007.59 | 1003.6 | 998.8
m1 = 0.3964 | 1016.79 | 1013.25 | 1009.26 | 1004.4
m1 = 0.4557 | 1019.55 | 1015.89 | 1011.88 | 1006.99
m1 = 0.5756 | 1024.98 | 1021.08 | 1017.04 | 1012.19
m1 = 0.7108 | 1030.77 | 1026.7 | 1022.63 | 1017.83
m1 = 1.826 | 1071.65 | 1065.12 | 1061.7 | 1057
